Measurements from patent US20170002393A1, “COMPOSITIONS AND METHODS FOR ANTIBODY PRODUCTION” (IMMUNOGEN, INC., priority 2013, published 2017).
Converted amounts (≈) assume the structure as drawn. Values belong to the compound of their own block, whether it stands above or below them.

Legend:
humanized FOLR1 IgG1 = test: Antibody fragmentation in HCCF with 20% (v/v) microfluidized CHO cells (non-reducing SDS-Protein Lab Chip); format: biochemical; details: 1 mM of each additive, 6 h; no additive control 78%
physchem = details: thermodynamic from solid
[1] = 50 mM potassium phosphate buffer, pH adjusted to 7.1
[2] = system: recombinant humanized IgG1 antibody; test: Antibody fragmentation in HCCF kept under nitrogen, air or oxygen with or without CDME (non-reducing SDS-Protein Lab Chip); format: biochemical
Procedure: A CHO cell culture producing recombinant humanized IgG1 antibody was subjected to centrifugation and the resulting harvest cell culture fluid (HCCF) was frozen at −80° C. […] At various time points, samples were quenched with N-ethylmaleimide (NEM), purified using immobilized Protein A, and analyzed for fragments using non-reducing SDS-Protein Lab Chip electrophoresis. […] In contrast, the sample overlayed with air became less fragmented with time, reaching a plateau of about 25% fragmentation at 20 hours.

[3] = system: Humanized anti-folate receptor 1 (FOLR1) IgG1; test: Thiol per antibody (DTNB/Ellman's) after incubating immobilized antibody with damaged CHO cell supernatant; format: biochemical; details: 0.05 mM agent, 2.2 hours; antibody eluted from Protein A bead, neutralized to pH 7
Procedure: For all of the examples described below, cell damage was simulated by multiple freeze-thaw cycles of cells, by addition of RIPA buffer (50 mM Tris-HCl, pH 7.4, 1% NP-40, 0.5% sodium deoxycholate, 0.1% sodium dodecylsulfate), or by using microfluidizer. This damaged cell supernatant or lysate was then incubated with a buffered solution containing antibody with or without the anti-reduction agent being tested, following which the extent of the antibody-disulfide reduction was measured using Ellman's assay for thiol (P. W. Riddles, R. L. Blakeley, and B. Zerner, Methods Enzymol., 91, 49-60, 1983) or by non-reducing SDS protein LabChip analysis. The total thiol level present in the mixture of damaged cell supernatant/lysate was measured initially. […]
The concentration of thiol in the suspension of damaged CHO cells was measured as 4 mM using DTNB ((5,5′-dithiobis(2-nitrobenzoic acid); Ellman's reagent). Humanized anti-folate receptor 1 (FOLR1) IgG1 (1 mg) was immobilized on 0.05 ml of Protein A bead (RepliGen) and then treated with pre-mixed 0.5 ml PBS and 0.1 ml damaged CHO cell supernatant. The concentration of thiol in this mixture was 0.67 mM. […]

SMILES: O=C1c2ccccc2C(=O)c2cc(S(=O)(=O)O)ccc21 [AQS, anthraquinone-2-sulfonic acid]
fragmentation compared to no additive control (humanized FOLR1 IgG1): much lower fragmentations

SMILES: CCOC(=O)[C@@H](N)CSSC[C@H](N)C(=O)OCC [CDEE, L-cystine diethyl ester]
solubility (physchem; pH 7, aqueous buffer): > 100 mM | solubility (physchem; water): ≥ 1000 mM

SMILES: COC(=O)[C@@H](N)CSSC[C@H](N)C(=O)OC [CDME, L-cystine dimethyl ester]
fragmentation compared to no additive control (humanized FOLR1 IgG1): much lower fragmentations | concentration dissolved in buffer [1]: ≥ 5 mM | time up to which the antibody was protected from reduction ([2]; 1 mM CDME with nitrogen): up to 20 hours | time up to which the antibody was protected from reduction ([2]; 2 mM CDME with nitrogen): ≤ 45 h | fragmentation with air overlay plus CDME versus air alone ([2]; ~1 mM CDME with air overlay, up to 72 hours): lowered the fragmentation further

SMILES: CN(C)c1ccc2nc3ccc(N(C)C)cc3[s+]c2c1 [methylene blue, Methylene blue]
thiol per antibody of eluted, neutralized antibody [3]: 0.002 thiol per antibody

SMILES: O=O [oxygen]
protection against fragmentation ([2]; sparging with oxygen at various percentages of dissolved O2): showed protection against fragmentation

Other lines, results leading:

concentration dissolved in buffer [1]: less than 5 mM
SMILES: Cl.Cl.N[C@@H](CSSC[C@H](N)C(=O)O)C(=O)O [L-cystine dihydrochloride, reference compound]

solubility (physchem; water): ~0.5 mM (≈ 0.12 mg/mL)
SMILES: N[C@@H](CSSC[C@H](N)C(=O)O)C(=O)O [L-cystine, reference compound]
